Drawing on patent US11040028B2, “Penicinotam derivative, preparation method and use thereof” (OCEAN UNIVERSITY OF CHINA, priority 2017, dated 2021), this text covers IC50 for 14 molecules.

Bounds are passed on as bounds.

Type in all cases: cell-based
In assay [1] the test system is BHK-21 cells. Description: Anti-fibrosis activity test: inhibition of BHK-21 cell proliferation (CCK-8). The conditions noted are these: Mesocricetus auratus, BHK-21, 48 h, CCK-8, 48 hours after administration. A digest of the protocol: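 Proliferation of BHK-21 cells is measured by CCK-8 at 450 nm following 48 h compound exposure at several concentrations. Inhibition is expressed relative to blank control and IC50 is computed from it.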

Assay [2] relates to human lung fibroblasts HFL1. Description: Anti-fibrosis activity test: inhibition of proliferation of human lung fibroblasts HFL1 (CCK-8). The conditions noted are these: Homo sapiens, HFL1, 48 h, human lung fibroblasts HFL1, CCK-8, 48 hours. A digest of the protocol: (§1)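 Exponentially growing cells, 2×10^4 cells/mL, attached 24 h. Dosed 48 h across concentrations (n=3). CCK-8 2 h → A450; IR vs blank; IC50.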

The test system of assay [3] is human hepatic stellate cells LX-2. In words: Anti-fibrosis activity test: inhibition of proliferation of human hepatic stellate cells LX-2 (CCK-8). The conditions noted are these: Homo sapiens, 48 h, human hepatic stellate cells LX-2, CCK-8, 48 hours. A digest of the protocol: as §1
The test system of assay [4] is human fibrosarcoma cells HT-1080. Description: Anti-fibrosis activity test: inhibition of proliferation of human fibrosarcoma cells HT-1080 (CCK-8). To be noted: Homo sapiens, HT-1080, 48 h, human fibrosarcoma cells HT-1080, CCK-8, 48 hours. Put shortly:
as §1

Assay [5] deals with human dermal fibroblasts CCC-ESF-1. In words: Anti-fibrosis activity test: inhibition of proliferation of human dermal fibroblasts CCC-ESF-1 (CCK-8). The conditions noted are these: Fibroblast; human dermal fibroblasts CCC-ESF-1, CCK-8, 48 hours. Put shortly:
as §1

Assay [6] concerns human embryonic lung fibroblast IMR-90. In words: Anti-fibrosis activity test: inhibition of proliferation of human embryonic lung fibroblast IMR-90 (CCK-8). The conditions noted are these: human embryonic lung fibroblast IMR-90, CCK-8, 48 hours. A digest of the protocol:
as §1

The test system of assay [7] is cardiac fibroblast RAT-iCell-C002. Description: Anti-fibrosis activity test: inhibition of proliferation of cardiac fibroblast RAT-iCell-C002 (CCK-8). To be noted: Cardiac fibroblast, 48 h, cardiac fibroblast RAT-iCell-C002, CCK-8, 48 hours. Put shortly:
as §1

Assay [8] concerns NF-κB. In words: Immunological activity test: inhibition of NF-κB activity. To be noted: initial concentration of 30 μM; a/b isomers given as first/second symbol; read-out: IC50 (μM), inhibitory activity against NF-κB. A digest of the protocol:
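NF-κB inhibition was tested at an initial 30 μM compound concentration, with parthenolide as positive control, and IC50 values were determined from follow-up analysis.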

Assay [9] deals with mouse macrophages (RAW264.7). In words: Lipopolysaccharide-induced NO secretion in macrophages (Griess). To be noted: Mus musculus, RAW264.7, 24 h, RAW264.7, LPS 1 μg/ml, a/b isomers given as first/second symbol, read-out: IC50 (μM), inhibition of lipopolysaccharide-induced NO secretion in macrophages. A digest of the protocol: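 RAW264.7 cells in DMEM with 10% FBS were treated with test compounds at several concentrations, then stimulated with LPS (1 μg/ml) for 24 hours. Nitrite in the supernatant was measured by Griess reaction at 548 nm, and percent inhibition was calculated against blank-medium controls.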

Usually IC50 stands for the concentration at which inhibition is half-maximal. For `Cn1c2c(c(=O)c3ccc(N4CCNCC4)cc31)C(=O)n1cccc1-2` [Compound 328a, 4-Methyl-6-(piperazin-1-yl)-9H-pyrrolizino[1,2-b]quinoline-9,10(4H)-dione], the IC50 was less than 0.05 mM in assay [1]; 0.05 to 5 mM in assay [2]; 0.05 to 5 mM in assay [3]; 0.05 to 5 mM in assay [4]; 0.05 to 5 mM in [5]; 0.05 to 5 mM in assay [6]. Also, the IC50 fell in the range of 0.05 to 5 mM in assay [7], 0.1 to 1 µM in assay [8] and 1 to 10 µM in assay [9].
As for `COc1c2c(nc3cc(N4CCNCC4)ccc13)-c1cccn1C2=O` [Compound 328b, 9-methoxy-6-(piperazin-1-yl)-10H-pyrrolizino[1,2-b]quinolin-10-one], the IC50 in assay [1], in assay [2], in assay [3], in assay [4], in assay [5] and in assay [6] was 0.05 to 5 mM in each case. For the same molecule, the IC50 was in the range of 0.05 to 5 mM in assay [7], 1 to 10 µM in [8] and 1 to 10 µM in assay [9].
In the case of `O=C1c2c([nH]c3c(Cl)cccc3c2=O)-c2cccn21` [Compound 443a, 5-Chloro-9H-pyrrolizino[1,2-b]quinoline-9,10(4H)-dione], the IC50 in [1], in assay [2], in assay [3], in [4], in assay [5] and in assay [6] was 0.05 to 5 mM in each case. The figures for the IC50 in assay [7], in [8] and in assay [9] were 0.05 to 5 mM, 1 to 10 µM and 1 to 10 µM, respectively.
As to `O=C1c2c(nc3c(Cl)cccc3c2O)-c2cccn21` [Compound 443b, 5-chloro-9-hydroxy-10H-pyrrolizino[1,2-b]quinolin-10-one], the IC50 in assay [1], in assay [2], in [3], in assay [4], in [5] and in assay [6] was 0.05 to 5 mM throughout. Moreover, the IC50 lay within 0.05 to 5 mM in assay [7], 1 to 10 µM in assay [8] and 1 to 10 µM in [9].
Take `O=C1c2c([nH]c3c(F)cccc3c2=O)-c2cccn21` [Compound 444a, 5-Fluoro-9H-pyrrolizino[1,2-b]quinoline-9,10(4H)-dione]: the concentration for half-maximal inhibition (IC50) in assay [1], in [2], in assay [3], in assay [4], in assay [5] and in [6] was 0.05 to 5 mM in each case. The IC50 in assay [7] fell in the range of 0.05 to 5 mM; in assay [8], 1 to 10 µM; in [9] it was 0.1 to 1 µM.
Take `O=C1c2c(nc3c(F)cccc3c2O)-c2cccn21` [Compound 444b, 5-fluoro-9-hydroxy-10H-pyrrolizino[1,2-b]quinolin-10-one]: the IC50 in assay [1], in assay [2], in assay [3], in assay [4], in [5] and in [6] was 0.05 to 5 mM in each case. Moreover, the IC50 lay within 0.05 to 5 mM in [7], 1 to 10 µM in assay [8] and 1 to 10 µM in assay [9].
In the case of `O=C1c2c([nH]c3c(O)cccc3c2=O)-c2cccn21` [Compound 445a, 5-Hydroxy-9H-pyrrolizino[1,2-b]quinoline-9,10(4H)-dione], the IC50 in assay [1], in assay [2], in [3], in [4], in assay [5] and in assay [6] was 0.05 to 5 mM throughout. The IC50 was in the range of 0.05 to 5 mM in assay [7], 1 to 10 µM in [8] and 1 to 10 µM in assay [9].
As to `O=C1c2c(nc3c(O)cccc3c2O)-c2cccn21` [Compound 445b, 5,9-dihydroxy-10H-pyrrolizino[1,2-b]quinolin-10-one], the IC50 in assay [1], in assay [2], in [3], in assay [4], in [5] and in assay [6] was 0.05 to 5 mM throughout. Also, the results for the IC50 in assay [7], in assay [8] and in [9] were 0.05 to 5 mM, 1 to 10 µM and 1 to 10 µM, respectively.
Regarding `COc1cccc2c(=O)c3c([nH]c12)-c1cccn1C3=O` [Compound 446a, 5-Methoxy-9H-pyrrolizino[1,2-b]quinoline-9,10(4H)-dione], the IC50 in [1], in assay [2], in [3], in assay [4], in assay [5] and in [6] was 0.05 to 5 mM throughout. For the same molecule, the IC50 was 0.05 to 5 mM in [7], 0.1 to 1 µM in assay [8] and 1 to 10 µM in assay [9].
With `COc1cccc2c(O)c3c(nc12)-c1cccn1C3=O` [Compound 446b, 9-hydroxy-5-methoxy-10H-pyrrolizino[1,2-b]quinolin-10-one], the IC50 in assay [1], in assay [2], in [3], in assay [4], in assay [5] and in [6] was 0.05 to 5 mM each time. Further, the IC50 in assay [7] was in the range of 0.05 to 5 mM; in assay [8] it was 0.001 to 0.1 µM; in assay [9], 1 to 10 µM.
`N#Cc1cccc2c(=O)c3c([nH]c12)-c1cccn1C3=O` [Compound 447a, 9,10-Dioxo-4,10-dihydro-9H-pyrrolizino[1,2-b]quinoline-5-carbonitrile]: the IC50 in assay [1] is 0.05 to 5 mM; in assay [2] it was 0.05 to 5 mM; in assay [3], 0.05 to 5 mM; in [4], less than 0.05 mM; in assay [5] it was 0.05 to 5 mM; in assay [6] it was 0.05 to 5 mM. The IC50 in assay [7] lay within 0.05 to 5 mM; in [8], 0.1 to 1 µM; in assay [9], 0.1 to 1 µM.
For `N#Cc1cccc2c(O)c3c(nc12)-c1cccn1C3=O` [Compound 447b, 9-hydroxy-10-oxo-10H-pyrrolizino[1,2-b]quinoline-5-carbonitrile], the IC50 in [1], in assay [2], in assay [3], in [4], in assay [5] and in [6] was 0.05 to 5 mM in each case. Besides, the IC50 lay in the range of 0.05 to 5 mM in [7], 0.1 to 1 µM in assay [8] and 1 to 10 µM in assay [9].
In the case of `O=C1c2c([nH]c3c(C(F)(F)F)cccc3c2=O)-c2cccn21` [Compound 448a, 5-(Trifluoromethyl)-9H-pyrrolizino[1,2-b]quinoline-9,10(4H)-dione], the IC50 in assay [1], in assay [2], in assay [3], in assay [4], in assay [5] and in assay [6] was 0.05 to 5 mM in each case. Further, the figures for the IC50 in assay [7], in [8] and in [9] were 0.05 to 5 mM, 1 to 10 µM and 0.1 to 1 µM, respectively.
For `O=C1c2c(nc3c(C(F)(F)F)cccc3c2O)-c2cccn21` [Compound 448b, 9-hydroxy-5-(trifluoromethyl)-10H-pyrrolizino[1,2-b]quinolin-10-one], the IC50 in [1] is 0.05 to 5 mM; in assay [2], 0.05 to 5 mM; in assay [3], 0.05 to 5 mM; in assay [4] it was less than 0.05 mM; in assay [5], 0.05 to 5 mM; in assay [6], 0.05 to 5 mM. Also, the IC50 in assay [7] was in the range of 0.05 to 5 mM; in assay [8], 1 to 10 µM; in assay [9], 1 to 10 µM.
